Measurements from paper PMC11995724, “Antibiotic target discovery by integrated phenotypic and activity-based profiling of electrophilic fragments” (Cell chemical biology, 2025).
Structures can show the parent of a compound that is named as a salt.

test: in vitro; conditions: human, hek293t cells

Compared with `CN(C)S(=O)(=O)c1ccc(NC(=O)CCl)cc1` [5-J11, 2-chloro-N-[4-(dimethylsulfamoyl)phenyl]acetamide], `CN(Cc1ccccc1)S(=O)(=O)c1ccc(NC(=O)CCl)cc1` [5-K08, N-{4-[benzyl(methyl)sulfamoyl]phenyl}-2-chloroacetamide] is higher in viability at 48 h, 25 µM: 1.08% for the first, 16.1% for the second.

Going from `CCN(CC)S(=O)(=O)c1ccc(Cl)c(NC(=O)CCl)c1` [5-J12, 2-chloro-N-[2-chloro-5-(diethylsulfamoyl)phenyl]acetamide] to `CCC(=O)Nc1cccc(NC(=O)CCl)c1C` [5-K04, N-[3-(2-chloroacetamido)-2-methylphenyl]propanamide], the viability at 48 h, 25 µM rises from 0.662% to 2.12%.

First: Cc1nn(CC(F)(F)F)c(C)c1C1COCCN1C(=O)CCl (stereo not drawn) [5-J13, 2-chloro-1-{3-[3,5-dimethyl-1-(2,2,2-trifluoroethyl)-1H-pyrazol-4-yl]morpholin-4-yl}ethan-1-one]
Second: O=C(CCl)N1CCC1c1cccc(F)c1 (stereo not drawn) [5-K10, 2-chloro-1-[2-(3-fluorophenyl)azetidin-1-yl]ethan-1-one]
The viability at 48 h, 25 µM of the first is lower: 2.86% for the first, 28.5% for the second.

Going from `O=C(CCl)Nc1cccc(CN2CCSCC2)c1` [5-J14, 2-chloro-N-{3-[(thiomorpholin-4-yl)methyl]phenyl}acetamide hydrochloride] to `O=C(CCl)NCc1ccccc1CN1CCOCC1` [5-L06, 2-chloro-N-({2-[(morpholin-4-yl)methyl]phenyl}methyl)acetamide hydrochloride], the viability at 48 h, 25 µM rises from 1.12% to 1.46%.

Going from `Cc1ncc(CNC(=O)C(C)Cl)n1C` (stereo not drawn) [5-J15, 2-chloro-N-[(1,2-dimethyl-1H-imidazol-5-yl)methyl]propanamide] to `COc1ccc(CNC(=O)C(C)Cl)cc1` (stereo not drawn) [5-J18, 2-chloro-N-[(4-methoxyphenyl)methyl]propanamide], the viability at 48 h, 25 µM falls from 106% to 98.5%.

First: CCN(Cc1cccc(C)c1)C(=O)CCl [5-J16, 2-chloro-N-ethyl-N-[(3-methylphenyl)methyl]acetamide]
Second: CCN(Cc1ccc2c(c1)OCO2)C(=O)CCl [5-L07, N-[(1,3-dioxaindan-5-yl)methyl]-2-chloro-N-ethylacetamide]
The viability at 48 h, 25 µM of the first is higher: 1.39% for the first, 0.477% for the second.

Compared with `CC(Cl)C(=O)NC(C)(C(N)=O)c1cccc(Cl)c1` (stereo not drawn) [5-J17, 2-(3-chlorophenyl)-2-(2-chloropropanamido)propanamide], `CC(Cl)C(=O)Nc1nc2ccccc2s1` (stereo not drawn) [5-K05, N-(1,3-benzothiazol-2-yl)-2-chloropropanamide] is lower in viability at 48 h, 25 µM: 125% for the first, 59.9% for the second.

First: CC(Cl)C(=O)N1CC=C(C(F)(F)F)CC1 (stereo not drawn) [5-J19, 2-chloro-1-[4-(trifluoromethyl)-1,2,3,6-tetrahydropyridin-1-yl]propan-1-one]
Second: CC(Cl)C(=O)N1CCC(Cc2ccccc2)CC1 (stereo not drawn) [5-K21, 1-(4-benzylpiperidin-1-yl)-2-chloropropan-1-one]
The viability at 48 h, 25 µM of the first is higher: 118% for the first, 86.2% for the second.

Going from `CC(C)N(Cc1ccccc1)C(=O)CCl` [5-J20, N-benzyl-2-chloro-N-(propan-2-yl)acetamide] to `CC(Cl)C(=O)N(Cc1ccccc1)Cc1ccccc1` (stereo not drawn) [5-K19, N,N-dibenzyl-2-chloropropanamide], the viability at 48 h, 25 µM rises from 1.21% to 82.1%.

Compared with `CC1CC(NC(=O)C(C)Cl)=NO1` (stereo not drawn) [5-J21, 2-chloro-N-(5-methyl-4,5-dihydro-1,2-oxazol-3-yl)propanamide], `Cc1cc(C)c(NC(=O)C(C)Cl)c(C)c1` (stereo not drawn) [5-K15, 2-chloro-N-(2,4,6-trimethylphenyl)propanamide] is higher in viability at 48 h, 25 µM: 97.1% for the first, 140% for the second.

Compared with `O=C(CCl)NC(=O)c1ccc(OC(F)F)cc1` [5-J22, N-(2-chloroacetyl)-4-(difluoromethoxy)benzamide], `N#Cc1ccc(OC2CN(C(=O)CCl)C2)cc1` [5-K07, 4-{[1-(2-chloroacetyl)azetidin-3-yl]oxy}benzonitrile] is lower in viability at 48 h, 25 µM: 108% for the first, 0.233% for the second.

First: Cc1ccc(Cc2cnc(NC(=O)CCl)s2)cc1 [5-K03, 2-chloro-N-{5-[(4-methylphenyl)methyl]-1,3-thiazol-2-yl}acetamide]
Second: Cc1nc(-c2cccc(NC(=O)CCl)c2)cs1 [5-K17, 2-chloro-N-[3-(2-methyl-1,3-thiazol-4-yl)phenyl]acetamide]
The viability at 48 h, 25 µM of the first is lower: -0.392% for the first, 13.2% for the second.

Going from `CCn1ccc(CN(C)C(=O)CCl)n1` [5-K06, 2-chloro-N-[(1-ethyl-1H-pyrazol-3-yl)methyl]-N-methylacetamide] to `Cc1ccc(C)c(CN(CCO)C(=O)CCl)c1` [5-K20, 2-chloro-N-[(2,5-dimethylphenyl)methyl]-N-(2-hydroxyethyl)acetamide], the viability at 48 h, 25 µM rises from 1.77% to 2.44%.

Going from `O=C(CCl)N1c2ccc(F)cc2NC(=O)C12CCC2` [5-K09, 1'-(2-chloroacetyl)-6'-fluoro-3',4'-dihydro-1'H-spiro[cyclobutane-1,2'-quinoxalin]-3'-one] to `O=C(CCl)N1CCC(Cc2nc(-c3ccc(F)cn3)no2)CC1` [5-K18, 2-chloro-1-(4-{[3-(5-fluoropyridin-2-yl)-1,2,4-oxadiazol-5-yl]methyl}piperidin-1-yl)ethan-1-one], the viability at 48 h, 25 µM rises from 0.346% to 1.83%.

Going from `CN(C)C(=O)c1cc2n(n1)CC1(CCN(C(=O)CCl)CC1)OC2` [5-K11, 1-(2-chloroacetyl)-N,N-dimethyl-4',7'-dihydrospiro[piperidine-4,6'-pyrazolo[3,2-c][1,4]oxazine]-2'-carboxamide] to `C[C@H]1CN(C(=O)CCl)CCN1C(=O)c1cscn1` [5-L05, 2-chloro-1-[(3S)-3-methyl-4-(1,3-thiazole-4-carbonyl)piperazin-1-yl]ethan-1-one], the viability at 48 h, 25 µM rises from 0.714% to 2.69%.

First: CC(O)CN(Cc1ccc(Cl)c(F)c1)C(=O)CCl (stereo not drawn) [5-K12, 2-chloro-N-[(4-chloro-3-fluorophenyl)methyl]-N-(2-hydroxypropyl)acetamide]
Second: O=C(CCl)N(Cc1ccccc1)Cc1cc2n(n1)CCCC2 [5-L03, N-benzyl-2-chloro-N-({4H,5H,6H,7H-pyrazolo[1,5-a]pyridin-2-yl}methyl)acetamide]
The viability at 48 h, 25 µM of the first is lower: 0.478% for the first, 0.904% for the second.

First: Cc1ccc(N(C(=O)CCl)C2C=CS(=O)(=O)C2)cc1 (stereo not drawn) [5-K13, 2-chloro-N-(1,1-dioxo-2,3-dihydro-1lambda6-thiophen-3-yl)-N-(4-methylphenyl)acetamide]
Second: NS(=O)(=O)c1cccc2cc(NC(=O)CCl)ccc12 [5-K16, 2-chloro-N-(5-sulfamoylnaphthalen-2-yl)acetamide]
The viability at 48 h, 25 µM of the first is lower: 0.562% for the first, 1.61% for the second.

Going from `CC(NC(=O)CCl)C(=O)N1CCS(=O)(=O)CC1` (stereo not drawn) [5-K14, 2-chloro-N-[1-(1,1-dioxo-1lambda6-thiomorpholin-4-yl)-1-oxopropan-2-yl]acetamide] to `O=C(CCc1ccccc1)NC1CCN(C(=O)CCl)CC1` [5-L08, N-[1-(2-chloroacetyl)piperidin-4-yl]-3-phenylpropanamide], the viability at 48 h, 25 µM falls from 86.7% to 1.18%.

First: O=C(CCl)Nc1ccc(S(=O)(=O)Nc2ccccc2)cc1 [5-K22, 2-chloro-N-[4-(phenylsulfamoyl)phenyl]acetamide]
Second: O=C(CCl)N1N=C(c2ccc(Cl)cc2)CC1c1ccco1 (stereo not drawn) [5-L04, 2-chloro-1-[3-(4-chlorophenyl)-5-(furan-2-yl)-4,5-dihydro-1H-pyrazol-1-yl]ethan-1-one]
The viability at 48 h, 25 µM of the first is higher: 1.09% for the first, -0.215% for the second.

`O=C(CCl)NCCc1cccs1` [5-L09, 2-chloro-N-[2-(thiophen-2-yl)ethyl]acetamide] showed a viability at 48 h, 25 µM of 90.7%.
